Entries after “also recorded” stand apart in the source; their conditions may differ.
How the values were obtained:
Assay type in all cases: physicochemical
[1] = Imidacloprid 700SC formulation viscosity and stability; settings: Imidacloprid 700 g/L formulation, dendrimer 20 g/L
Procedure: Imidacloprid formulations were prepared by using high shear mixing to disperse formulation ingredients in 75% of the required water before adding the active and mixing until homogeneous. The mixture was milled on a bead mill (4 m/s) at 30-35° C. for 1 complete pass. Thickener, glycerine and residual water were then added under high shear mixing. Formulations were tested for viscosity (using a Brookfield LV viscometer) low temperature stability (0 C for 7 days) and RT stability. Many other dendrimers containing formulations prepared either solidified on milling or pre-milling Compound 4 reduced viscosity and provided greater formulation stability.

[2] = Tebuconazole 600 SC formulation viscosity (Table 8); settings: dendrimer 0.7%
Procedure: (§1) Formulations were prepared by mixing water, surfactant, dispersing agent, wetting agent and antifoam together then gradually adding active. High shear mix for 20-30 minutes to disperse formulation ingredients in water before adding the active and mixing until homogeneous. The mixture was milled on a Dyno bead mill (1 m/s) with 0.4-0.6 mm beads at max. 40° C. until particle size was <4 um. Dendrimer compound (in DEG) was added and stirred for 20 minutes. Thickener and antimicrobial was then added and stirred for 20 minutes. Formulations were deaerated by sonication.

[3] = Dynamic viscosity of aqueous dendrimer solution (Brookfield); settings: aqueous solution 7% dendrimer and 3% DEG, ambient temperature, spindle no. 63 at 50 rpm
Procedure: 50 g aqueous solution of dendrimer (7% dendrimer and 3% DEG) was prepared in deionized water in a beaker, and subjected to dynamic viscosity measurement using Brookfield viscometer at ambient temperature. Viscosity studies were conducted using spindle no. 63 at 50 rpm. It was observed that viscosity of Compound-1 solution was 1.8 cps and Compound-4 solution was 0.6 cps.

[4] = Water value of dendrimers with solvent (Solvesso 200); settings: 50 g aqueous solution, 7% dendrimer and 3% DEG; until hazy
Procedure: 50 g Aqueous solution of Dendrimer were prepared containing 7% dendrimer and 3% Diethylene glycol (DEG) by weight. Solvesso 200 (C10-13 aromatic hydrocarbon solvent) was added dropwise under stirring until the solution became hazy. Weight of Solvesso added was recorded.

[5] = 2,4-D/dendrimer hard water testing (clarity, sedimentation); settings: 30° C.; for Appearance at Addition / Appearance/Sedimentation After 24 Hrs.: 2,4-D Amine in 342 ppm hard water
Procedure: 342 ppm hard water was prepared as per CIPAC method MT18. The hard water was heated to 30° C. […]

[6] = Tebuconazole 600 SC wetting study in hard water; settings: one drop Tebuconazole 600 SC, dendrimer 0.7%, in 342 ppm hard water at 30° C.
Procedure: as §1
Wetting studies were conducted by placing one drop of Tebuconazole 600 SC formulation in 342 ppm hard water at 30° C. and recording the time when all the formulation particles were wet and dispersed in water.

Cloud point studies = settings: 1 gm. dendrimer solution (70:30 w/w dendrimer:Diethylene Glycol) in 99 gm. of 10% NaOH solution
Procedure: 1 gm. of dendrimer solution (70:30 w/w dendrimer [Compound 1 or Compound 4]:Diethylene Glycol) was dissolved in 99 gm. of 10% NaOH solution in Deionized water and heated until hazy. Temperature of the solution was measured using calibrated thermometer.

[7] = Solubilization of water insoluble surfactant Ethoxylated Lauryl alcohol-3 M in LA-9 solution; settings: for Quantity LA-3 added to LA-9 solution: 50 g, until hazy
Procedure: 5% w/w aqueous solution of Ethoxylated Lauryl alcohol-9 mole (water soluble surfactant) was prepared in Deionized water (2.5 g in 47.5 ml). Dendrimer compounds 1 and 4 were diluted 70:30 w/w in Diethylene glycol. The 5% Ethoxylated Lauryl alcohol-9 M (LA-9) solution was combined with dendrimer DEG solution at 90:10, 80:20 and 70:30 w/w (total weight 50 g).
Ethoxylated lauryl alcohol-3 mole (water insoluble surfactant) was added dropwise, while stirring, to the 50 g LA-9 solution (with or without dendrimer), until it became hazy. The weight of Ethoxylated lauryl alcohol-3 M added was recorded.

[8] = 2,4-D/dendrimer formulation stability study (crystallisation at 0° C.); settings: for Crystallisation After 7 Days at 0° C. With Seeding: 2,4-D Amine 625 g/l seeded with 2,4-D Amine salt; for Crystallisation After 7 Days at 0° C.: without seeding
Procedure: 20 ml of 2,4-D Amine(2,4-D 625 g/l market sample, Rygel, Adama Australia) was transferred to 25 ml clear vials and dendrimer added (with or without 30% Dithethylene Glycol). Caps were tightened to ensure no moisture entered the vials. Formulations were placed in a freezer at 0° C. […] In a related experiment, formulations were prepared with seeding with 2,4-D Amine salt (Shanghai Biochemical Sci. Ltd., purity 98 in order to hasten rate of crystallisation. The results are provided in Table 2.

[9] = Tebuconazole 600 SC hard water testing: suspensibility, column thinning, sedimentation; settings: 2 ml Tebuconazole 600 SC, dendrimer 0.7%, in 98 ml 342 ppm hard water, 30° C., 24 hours
Procedure: as §1
98 ml of 342 ppm hard water (prepared as per CIPAC method MT18) was heated to 30° C. before adding 2 ml. of Tebuconazole 600 SC formulation. Temperature was maintained at 30° C. for 24 hours and formulation characteristics were studied for suspension stability, wetting, column thinning/separation and sedimentation.

[10] = Additional tebuconazole formulations: suspension stability and viscosity; settings: additional tebuconazole formulation, 0.8% additive
Description: Additional formulations were developed, and formulation characteristics were studied for suspension stability, and viscosity.

[11] = 2,4-D Amine 625 g/l, dendrimer 2%
[12] = 2,4-D Amine 625 g/l, dendrimer 5%
[13] = 2,4-D Amine 625 g/l, dendrimer 10%

OCCN(CCO)CC(O)COCC(COCC(O)CN(CCO)CCO)(COCC(O)CN(CCO)CCO)COCC(COCC(O)CN(CCO)CCO)(COCC(O)CN(CCO)CCO)COCC(O)CN(CCO)CCO (stereo not drawn) [Compound 4, 9,9′-(Oxybis(methylene))bis(9-((3-(bis(2-hydroxyethyl)amino)-2-hydroxypropoxy)methyl)-3,15-bis(2-hydroxyethyl)-7,11-dioxa-3,15-diazaheptadecane-1,5,13,17-tetraol)]
Observation: sediment at 0 C. ([1]; 0 C for 7 days): No sediment at 0 C.,
Viscosity (cP) 0 C. ([1]; 0 C., Brookfield LV viscometer): 552 cP
Observation: sediment at RT ([1]; RT): fluffy, low sediment at RT
Viscosity (cP) RT ([1]; RT, Brookfield LV viscometer): 574 cP
Viscosity 0 C. ([2]; 0 C.): 744
Viscosity 54 C. ([2]; 54 C.): 730
Viscosity RT ([2]; RT): 730 cP
Dynamic viscosity [3]: 0.6 cps
Quantity Solvesso 200 added [4]: 2.15 g
Appearance at Addition ([5]; dendrimer 1.4% (w/w), 0.6% DEG): Clear
Appearance/Sedimentation After 24 Hrs. ([5]; dendrimer 1.4% (w/w), 0.6% DEG): Clear
Appearance at Addition ([5]; dendrimer 2% (w/w)): Clear
Appearance/Sedimentation After 24 Hrs. ([5]; dendrimer 2% (w/w)): Clear
Appearance at Addition ([5]; dendrimer 3.5% (w/w), 1.5% DEG): Clear
Appearance/Sedimentation After 24 Hrs. ([5]; dendrimer 3.5% (w/w), 1.5% DEG): Clear
Appearance at Addition ([5]; dendrimer 5% (w/w)): Clear
Appearance/Sedimentation After 24 Hrs. ([5]; dendrimer 5% (w/w)): Clear
Appearance at Addition ([5]; dendrimer 7% (w/w), 3% DEG): Clear
Appearance/Sedimentation After 24 Hrs. ([5]; dendrimer 7% (w/w), 3% DEG): Clear
Appearance at Addition ([5]; dendrimer 10% (w/w)): Clear
Appearance/Sedimentation After 24 Hrs. ([5]; dendrimer 10% (w/w)): Clear
Appearance of 2,4-D solutions in hard water ([5]; all concentrations tested (from 1.4 to 10%), 342 ppm hard water, 24 hours): clear
Wetting [6]: 9.9 s
Cloud point (temperature at which solution turned hazy) (Cloud point studies): greater than 80 °C
Quantity LA-3 added to LA-9 solution ([7]; ratio 5% LA-9 solution:dendrimer/DEG solution 70:30 (w/w), 21% dendrimer (w/w)): 2.01 g
Quantity LA-3 added to LA-9 solution ([7]; ratio 5% LA-9 solution:dendrimer/DEG solution 80:20 (w/w), 14% dendrimer (w/w)): 2.86 g
Quantity LA-3 added to LA-9 solution ([7]; ratio 5% LA-9 solution:dendrimer/DEG solution 90:10 (w/w), 7% dendrimer (w/w)): 2.11 g
Increase in solubilisation of Ethoxylated lauryl alcohol-3 M ([7]; over LA-9 without dendrimer): 72%
Crystallisation After 7 Days at 0° C. With Seeding ([8]; dendrimer 1.4%, Diethylene Glycol 0.6%): Crystallised
Crystallisation After 7 Days at 0° C. With Seeding ([8]; dendrimer 2%): Crystallised
Crystallisation After 7 Days at 0° C. With Seeding ([8]; dendrimer 3.5%, Diethylene Glycol 1.5%): Crystallised
Crystallisation After 7 Days at 0° C. With Seeding ([8]; dendrimer 5%): Crystallised
Crystallisation After 7 Days at 0° C. With Seeding ([8]; dendrimer 7%, Diethylene Glycol 3%): remained stable; also recorded: No, Clear
Crystallisation After 7 Days at 0° C. With Seeding ([8]; dendrimer 10%): remained stable; also recorded: No, Clear
Crystallisation at 0° C. without seeding ([8]; 2,4-D Amine 625 g/l, all levels of dendrimer tested): did not result in crystallisation
Crystallisation After 14 Days at 0° C. ([8]; 2,4-D Amine 625 g/l, dendrimer 1.4%, Diethylene Glycol 0.6%): Crystallised
Crystallisation After 14 Days at 0° C. [8, 11]: Crystallised
Crystallisation After 14 Days at 0° C. ([8]; 2,4-D Amine 625 g/l, dendrimer 3.5%, Diethylene Glycol 1.5%): No
Crystallisation After 14 Days at 0° C. [8, 12]: Crystallised
Crystallisation After 14 Days at 0° C. ([8]; 2,4-D Amine 625 g/l, dendrimer 7%, Diethylene Glycol 3%): No
Crystallisation After 14 Days at 0° C. [8, 13]: No
Crystallisation After 7 Days at 0° C. [8, 11]: No
Crystallisation After 7 Days at 0° C. [8, 12]: No
Crystallisation After 7 Days at 0° C. [8, 13]: No
Suspensibility: Sediment [9]: <0.5 mL⁻¹
Suspensibility: nature of sediment [9]: Compact
Suspensibility: Column Thinning ([9]; top thinning): No
Observation: sediment at 0 C. ([10]; 0 C.): No sediment at 0 C.,
Viscosity (cP) 0 C. ([10]; 0 C.): 514 cP
Observation: sediment at RT ([10]; RT): fluffy, low sediment
Viscosity (cP) RT ([10]; RT): 672 cP
